Here are results for one substance from patent US20080306007A1, “AGENTS FOR PROPHYLAXIS OR TREATMENT OF NEUROLOGICAL RELATED DISEASES AND CONDITIONS” (Newcastle Innovation Limited, priority 2007, published 2008).

Assay [1] addresses T1, dynamin I-endophilin I interaction (Rattus norvegicus, UniProt O35179).
T1 construct: Syndapin I or dynamin I were immunoprecipitated from nerve terminals; from tissue; host or cells: rat brain crude (P2) synaptosomes
Nature of the assay: Elution of endophilin I from immunoprecipitated complex by peptide. Format: binding. The settings on record: immunoprecipitated complex incubated with peptide. On the procedure:
(§1) To determine whether the phospho-box sequence might account for syndapin I recruitment to dynamin I, the ability of a DynI769-784AA peptide (FIG. 5a) to disrupt their interaction was tested. Syndapin I or dynamin I were immunoprecipitated from nerve terminals and the individual protein complexes were incubated with DynI769-784AA (SEQ ID No. 8) peptide (see below). Their interaction in both cases was reduced by the peptide, as indicated by the specific release of either binding partner from the bead-bound complex (FIG. 4c). No elution of endophilin I (FIG. 4c) or amphiphysin I (data not shown) was detected, highlighting the specificity of the interaction.
(§2) Crude (P2) synaptosomes were prepared from rat brain and lysed as described in Example 1.1.3. Synaptosome lysates were incubated with 5 μg of anti-syndapin I or […] pre-bound to protein G-sepharose (Roche) for 3 h at 4° C. Beads were washed with ice-cold PBS, eluted in SDS-PAGE sample buffer and blotted with anti-syndapin I, anti-endophilin I and anti-dynamin I antibodies.

Assay [2] addresses T2, amphiphysin I (Rattus norvegicus, UniProt O08838).
T2 construct: Syndapin I or dynamin I were immunoprecipitated from nerve terminals; from tissue; host or cells: rat brain crude (P2) synaptosomes
T2 sequence (O08838 1-683): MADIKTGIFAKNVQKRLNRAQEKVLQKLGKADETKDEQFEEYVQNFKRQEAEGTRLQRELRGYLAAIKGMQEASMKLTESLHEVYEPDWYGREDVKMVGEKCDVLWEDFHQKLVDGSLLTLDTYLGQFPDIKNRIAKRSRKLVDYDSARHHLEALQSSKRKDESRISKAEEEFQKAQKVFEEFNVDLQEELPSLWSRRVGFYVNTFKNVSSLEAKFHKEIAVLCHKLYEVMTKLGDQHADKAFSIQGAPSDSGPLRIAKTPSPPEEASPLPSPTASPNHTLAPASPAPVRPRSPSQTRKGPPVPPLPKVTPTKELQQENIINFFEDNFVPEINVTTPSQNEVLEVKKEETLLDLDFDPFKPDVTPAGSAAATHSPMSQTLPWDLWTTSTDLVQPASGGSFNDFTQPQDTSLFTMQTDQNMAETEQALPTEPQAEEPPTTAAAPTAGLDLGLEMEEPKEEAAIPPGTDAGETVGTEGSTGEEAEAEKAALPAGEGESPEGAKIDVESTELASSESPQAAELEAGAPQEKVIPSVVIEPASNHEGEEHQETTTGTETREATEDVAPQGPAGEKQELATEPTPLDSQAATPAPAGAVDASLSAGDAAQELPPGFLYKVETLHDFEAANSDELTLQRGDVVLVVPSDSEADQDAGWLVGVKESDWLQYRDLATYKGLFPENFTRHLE
The assay can be described thus: Elution of amphiphysin I from immunoprecipitated complex by peptide. Format: binding. The note with it: data not shown. On the procedure:
as §1, §2

The target in assay [3] is T3, dynamin I-syndapin I complex (Rattus norvegicus, UniProt Q9Z0W5).
T3 construct: Syndapin I or dynamin I were immunoprecipitated from nerve terminals; from tissue; host or cells: rat brain crude (P2) synaptosomes
Nature of the assay: Peptide disruption of immunoprecipitated dynamin I-syndapin I complex from nerve terminals. Format: binding. The note with it: syndapin I or dynamin I immunoprecipitates incubated with peptide. Here is the method:
as §1, §2

For assay [4], the system named is synaptosomes (SV retrieval from the plasma membrane). Nature of the assay: FM2-10 SV internalisation assay (purified SVs from synaptosomes). The class given is cell-based, rat. On the procedure:
(§3) Loading of FM2-10 (Molecular Probes) into recycling synaptosomal SVs was measured as previously described. Data is presented as Ca^2+-dependent FM2-10 unloading, which is the difference between release after loading in plus and minus Ca^2+ solutions. Where indicated, synaptosomes were preincubated with penetratin peptide for 30 min prior to stimulation of FM2-10 loading. […] The same assay was used to monitor the effect of penetratin peptide on SV exocytosis. However, in this instance, the synaptosomes were loaded with FM2-10 in plus Ca^2+ Krebs-like solution and, where indicated, were preincubated with penetratin peptide for 30 min prior to stimulation of FM2-10 unloading. Data is presented as Ca^2+-dependent FM2-10 unloading. The SV internalisation assay was performed as previously described.
If SVE was arrested before SV fission occurred, […]. SVs were purified and their fluorescence values were corrected for dye uptake in the absence of Ca^2+ (Ca^2+-dependent) and normalised to control (n=3, mean ±s.e.m.).

The test system of assay [5] is synaptosomes (SV exocytosis). The assay can be described thus: FM2-10 unloading (SV exocytosis) assay in synaptosomes. Format: cell-based, rat. The note with it: evoked by 30 mM KCl; peptide preincubated 30 min before unloading. On the procedure:
as §3
A block in SV turnover cannot be ascribed to an inhibition of SVE until an effect on exocytosis has been excluded. Two independent exocytosis assays were conducted to assess this: endogenous glutamate release and FM2-10 unloading. […] Finally, the extent of SVE inhibition by the peptides was quantified by calculating “retrieval efficiency” which takes into account prior exocytosis; a value of less than one indicating a selective SVE inhibition. […]

Assay [6] deals with synaptosomes (glutamate release). Nature of the assay: 4-AP evoked glutamate release (repetitive stimulation) in synaptosomes. The class given is cell-based, rat. The settings on record: 4-AP 1 mM. Here is the method: In all SV recycling studies synaptosomes were prepared from rat cerebral cortex by centrifugation on discontinuous percoll gradients (Dunkley et al. 1986). The glutamate release assay was performed as described before (Cousin and Robinson 2000a). Data is presented as Ca^2+-dependent glutamate release, calculated as the difference between release in plus and minus Ca^2+ solutions. Penetratin peptides (Genemed Synthesis) were preincubated with the synaptosomes for 30 min before stimulation and had no effect on Ca^2+-independent release of glutamate.
Selective inhibition of SVE by the phospho-box peptide should produce a rundown or fatigue of glutamate release after repeated stimuli, since the supply of SVs will progressively decline. To produce repetitive stimulation in synaptosomes the K^+ channel blocker 4-aminopyridine (4-AP) was used. This produces a tetrodotoxin-sensitive repetitive firing that mimics in vivo stimulation. It has previously been reported that 4-AP evokes continual SV recycling for at least 15 minutes in synaptosomes. […] The inset is also zoomed on the first 3 min from 4-AP addition (which was at 60 s) to highlight the lack of effect during the first 45s.

T1 sequence (O35179 whole entry): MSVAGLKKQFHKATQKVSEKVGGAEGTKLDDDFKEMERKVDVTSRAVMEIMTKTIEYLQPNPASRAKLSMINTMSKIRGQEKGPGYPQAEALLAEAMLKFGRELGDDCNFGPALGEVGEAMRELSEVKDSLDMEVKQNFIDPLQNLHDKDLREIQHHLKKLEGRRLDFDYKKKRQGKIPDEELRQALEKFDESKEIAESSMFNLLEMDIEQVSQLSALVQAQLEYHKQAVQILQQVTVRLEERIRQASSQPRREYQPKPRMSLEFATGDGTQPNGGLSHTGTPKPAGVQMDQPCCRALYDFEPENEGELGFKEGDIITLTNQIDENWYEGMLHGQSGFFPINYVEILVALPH
T3 sequence (Q9Z0W5 whole entry, one chain of several): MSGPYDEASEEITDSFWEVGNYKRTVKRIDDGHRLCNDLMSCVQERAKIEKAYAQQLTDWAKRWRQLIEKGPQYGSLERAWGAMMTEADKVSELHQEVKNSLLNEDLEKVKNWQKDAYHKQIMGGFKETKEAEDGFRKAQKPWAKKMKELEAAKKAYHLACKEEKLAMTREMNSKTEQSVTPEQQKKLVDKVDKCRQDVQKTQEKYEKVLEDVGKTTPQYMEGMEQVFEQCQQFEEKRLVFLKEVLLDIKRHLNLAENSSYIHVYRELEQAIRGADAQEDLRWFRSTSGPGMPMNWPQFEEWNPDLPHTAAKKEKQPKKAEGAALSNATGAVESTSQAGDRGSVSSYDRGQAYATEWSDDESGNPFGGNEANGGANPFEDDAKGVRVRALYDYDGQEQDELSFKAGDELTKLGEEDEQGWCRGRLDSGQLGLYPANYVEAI

With “DynI769-784AA: Dynamin I phospho-box mimetic peptide (residues 769-784), AA mutant, tagged with penetratin heptapeptide RRMKWKK (RRMKWKKPAGRRAPTSAPTPQRR; listed as Rattus norvegicus)”, the “elution of endophilin I from complex” value in assay [1] is given as “No elution”. For the same substance, the “elution of amphiphysin I from complex” value in assay [2] is “No elution”. For the same substance, the “dynamin I-syndapin I interaction (release of binding partner from bead-bound complex)” value in assay [3] is recorded as “reduced”. The “inhibition of FM2-10 accumulation in SVs” value in assay [4] is “approximately 35%”. The “FM2-10 accumulation in purified SVs (Ca2+-dependent)” value in assay [4] (n=3, mean ± s.e.m.) is given as 64.9±5.5 % of control. The FM2-10 unloading in assay [5] is listed as 81.1±0.8 % of control. In addition, the “effect on the first 45 sec of 4-AP evoked exocytosis” value in assay [6] (first 45 sec) is “without effect”. Also, the “effect on 4-AP evoked glutamate release with continued stimulation” value in assay [6] (repetitive stimulation) was “activity-dependent depression of release that increased with continued stimulation”.
